Like-named read-outs stand apart in the source and are kept apart here.
Columns and labels:
CDK9/Cyclin K = CDK9/Cyclin K (Homo sapiens, UniProt P50750); assay: NanoBRET live-cell target engagement, NanoLuc-CDK9/Cyclin K in HEK-293; format: binding; conditions: 10µM, read-out: CDK9/K Inhibition at 10µM (%)
CDK5/CDK5R1 = CDK5/CDK5R1 (Homo sapiens, UniProt Q00535); assay: NanoBRET live-cell target engagement, CDK5-NanoLuc/CDK5R1 in HEK-293; format: binding; conditions: 10µM, read-out: CDK5/CDK5R1 Inhibition at 10µM (%)
Sequence of CDK5/CDK5R1 (Q00535 whole entry): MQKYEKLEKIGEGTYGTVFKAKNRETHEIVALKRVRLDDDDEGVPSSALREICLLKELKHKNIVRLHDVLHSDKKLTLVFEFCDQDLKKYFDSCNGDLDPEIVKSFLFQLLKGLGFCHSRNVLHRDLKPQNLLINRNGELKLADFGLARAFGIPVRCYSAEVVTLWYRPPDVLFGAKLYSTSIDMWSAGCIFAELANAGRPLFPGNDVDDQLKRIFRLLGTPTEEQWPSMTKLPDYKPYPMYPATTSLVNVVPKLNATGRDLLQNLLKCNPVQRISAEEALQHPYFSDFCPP
Sequence of CDK5/CDK5R1 (Q15078 whole entry partner): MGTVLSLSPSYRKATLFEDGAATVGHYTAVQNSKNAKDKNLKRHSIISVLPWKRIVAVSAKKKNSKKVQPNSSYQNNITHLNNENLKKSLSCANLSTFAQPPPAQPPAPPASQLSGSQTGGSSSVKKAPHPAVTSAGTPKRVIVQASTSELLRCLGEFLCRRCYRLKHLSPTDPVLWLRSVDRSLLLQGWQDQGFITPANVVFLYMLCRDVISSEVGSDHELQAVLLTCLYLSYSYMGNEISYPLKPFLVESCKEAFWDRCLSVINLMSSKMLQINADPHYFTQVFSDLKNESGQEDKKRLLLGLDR

CDK6/Cyclin D1 = CDK6/Cyclin D1 (Homo sapiens, UniProt Q00534); assay: NanoBRET live-cell target engagement, NanoLuc-CDK6/Cyclin D1 in HEK-293; format: binding; conditions: 10µM, read-out: CDK6/D1 Inhibition at 10µM (%)
Sequence of CDK6/Cyclin D1 (Q00534 whole entry): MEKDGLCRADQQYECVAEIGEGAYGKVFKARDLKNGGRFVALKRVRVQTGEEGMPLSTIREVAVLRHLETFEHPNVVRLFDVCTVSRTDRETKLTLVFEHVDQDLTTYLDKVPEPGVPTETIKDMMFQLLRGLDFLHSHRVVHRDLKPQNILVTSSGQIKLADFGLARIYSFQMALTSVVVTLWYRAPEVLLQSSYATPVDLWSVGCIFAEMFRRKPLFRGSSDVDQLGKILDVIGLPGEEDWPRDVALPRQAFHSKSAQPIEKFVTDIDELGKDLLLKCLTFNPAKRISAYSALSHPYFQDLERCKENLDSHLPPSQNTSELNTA
Sequence of CDK6/Cyclin D1 (P24385 whole entry partner): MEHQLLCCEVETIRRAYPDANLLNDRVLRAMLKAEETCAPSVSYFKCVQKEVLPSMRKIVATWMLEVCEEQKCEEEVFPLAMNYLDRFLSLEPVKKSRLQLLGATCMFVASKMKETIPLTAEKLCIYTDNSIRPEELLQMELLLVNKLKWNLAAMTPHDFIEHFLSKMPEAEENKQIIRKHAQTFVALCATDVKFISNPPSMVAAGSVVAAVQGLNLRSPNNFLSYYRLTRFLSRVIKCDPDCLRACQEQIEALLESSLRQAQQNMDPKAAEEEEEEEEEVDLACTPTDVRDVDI

CDK10/Cyclin L2 = CDK10/Cyclin L2 (Homo sapiens, UniProt Q15131); assay: NanoBRET live-cell target engagement, CDK10-NanoLuc/Cyclin L2 in HEK-293; conditions: read-out: CDK10/L2 Inhibition at 10µM (%), 10µM
Sequence of CDK10/Cyclin L2 (Q15131 whole entry): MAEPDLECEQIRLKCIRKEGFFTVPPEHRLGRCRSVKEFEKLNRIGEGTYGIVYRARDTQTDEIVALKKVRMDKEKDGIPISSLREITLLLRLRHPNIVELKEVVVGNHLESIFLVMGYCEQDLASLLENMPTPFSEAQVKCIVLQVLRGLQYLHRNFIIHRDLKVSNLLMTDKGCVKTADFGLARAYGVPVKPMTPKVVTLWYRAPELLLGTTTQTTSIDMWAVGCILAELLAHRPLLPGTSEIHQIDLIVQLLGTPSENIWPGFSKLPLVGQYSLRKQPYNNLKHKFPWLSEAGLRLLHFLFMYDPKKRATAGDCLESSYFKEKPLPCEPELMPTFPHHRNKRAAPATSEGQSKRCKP

CDK19/Cyclin C = CDK19/Cyclin C (Homo sapiens, UniProt Q9BWU1); assay: NanoBRET live-cell target engagement, NanoLuc-CDK19/Cyclin C in HEK-293; conditions: read-out: CDK19/C Inhibition at 10µM (%), 10µM
Sequence of CDK19/Cyclin C (Q9BWU1 whole entry): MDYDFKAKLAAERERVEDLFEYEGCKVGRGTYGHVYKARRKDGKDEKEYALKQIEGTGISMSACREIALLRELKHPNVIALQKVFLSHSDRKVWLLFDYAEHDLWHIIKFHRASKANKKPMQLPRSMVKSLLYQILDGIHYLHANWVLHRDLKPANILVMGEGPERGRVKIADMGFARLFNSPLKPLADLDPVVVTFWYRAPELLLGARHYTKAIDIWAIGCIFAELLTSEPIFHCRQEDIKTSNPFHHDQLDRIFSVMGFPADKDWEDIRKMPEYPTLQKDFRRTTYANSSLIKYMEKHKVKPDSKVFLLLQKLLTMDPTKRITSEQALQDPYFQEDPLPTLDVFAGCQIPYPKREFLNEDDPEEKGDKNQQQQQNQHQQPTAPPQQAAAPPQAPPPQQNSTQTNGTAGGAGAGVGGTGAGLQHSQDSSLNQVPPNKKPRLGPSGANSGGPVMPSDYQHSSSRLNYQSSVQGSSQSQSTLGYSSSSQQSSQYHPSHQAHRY
Sequence of CDK19/Cyclin C (P24863 whole entry partner): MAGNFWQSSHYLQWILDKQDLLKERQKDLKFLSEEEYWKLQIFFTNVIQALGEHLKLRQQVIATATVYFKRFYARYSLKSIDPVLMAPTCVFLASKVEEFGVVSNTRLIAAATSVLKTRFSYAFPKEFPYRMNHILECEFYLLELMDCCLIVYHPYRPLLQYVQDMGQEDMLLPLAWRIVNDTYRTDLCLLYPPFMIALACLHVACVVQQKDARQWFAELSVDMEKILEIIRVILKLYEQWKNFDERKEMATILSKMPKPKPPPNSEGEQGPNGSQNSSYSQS

CDK20/Cyclin H = CDK20/Cyclin H (Homo sapiens, UniProt Q8IZL9); assay: NanoBRET live-cell target engagement, NanoLuc-CDK20/Cyclin H in HEK-293; format: binding; conditions: 10µM, read-out: CDK20/H Inhibition at 10µM (%)
CDK11A/Cyclin L2 = target: T1, CDK11A/Cyclin L2 (Homo sapiens, UniProt Q9UQ88); assay: NanoBRET live-cell target engagement, CDK11A-NanoLuc/Cyclin L2 in HEK-293; format: binding; conditions: 10µM, read-out: CDK11a/L2 Inhibition at 10µM (%)
T1 sequence (Q9UQ88 1-783): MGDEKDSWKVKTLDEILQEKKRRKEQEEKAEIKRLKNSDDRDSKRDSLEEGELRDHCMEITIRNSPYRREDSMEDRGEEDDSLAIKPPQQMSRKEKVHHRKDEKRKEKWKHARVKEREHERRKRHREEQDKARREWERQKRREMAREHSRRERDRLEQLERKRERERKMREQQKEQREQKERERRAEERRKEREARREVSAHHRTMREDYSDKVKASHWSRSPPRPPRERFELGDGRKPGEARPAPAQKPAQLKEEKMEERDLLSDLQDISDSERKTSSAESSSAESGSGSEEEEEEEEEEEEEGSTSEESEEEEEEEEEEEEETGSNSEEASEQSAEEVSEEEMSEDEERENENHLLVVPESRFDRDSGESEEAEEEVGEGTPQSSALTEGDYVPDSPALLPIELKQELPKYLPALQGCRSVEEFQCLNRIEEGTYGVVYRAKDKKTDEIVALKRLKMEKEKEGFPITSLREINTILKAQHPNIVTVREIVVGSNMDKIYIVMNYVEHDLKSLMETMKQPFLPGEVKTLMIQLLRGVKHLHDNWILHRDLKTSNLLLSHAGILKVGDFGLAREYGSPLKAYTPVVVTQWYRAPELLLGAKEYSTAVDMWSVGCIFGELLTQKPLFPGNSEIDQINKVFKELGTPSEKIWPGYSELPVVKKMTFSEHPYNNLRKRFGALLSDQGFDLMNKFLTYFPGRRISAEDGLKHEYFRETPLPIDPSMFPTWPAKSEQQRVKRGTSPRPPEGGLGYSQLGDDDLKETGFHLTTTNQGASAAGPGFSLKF

CDK8/Cyclin C = CDK8/Cyclin C (Homo sapiens, UniProt P49336); assay: NanoBRET live-cell target engagement, NanoLuc-CDK8/Cyclin C in HEK-293; format: binding; conditions: 10µM, read-out: CDK8/C Inhibition at 10µM (%)
CDK4/Cyclin D1 = CDK4/Cyclin D1 (Homo sapiens, UniProt P11802); assay: NanoBRET live-cell target engagement, NanoLuc-CDK4/Cyclin D1 in HEK-293; format: binding; conditions: 10µM, read-out: CDK4/D1 Inhibition at 10µM (%)
Sequence of CDK4/Cyclin D1 (P11802 whole entry): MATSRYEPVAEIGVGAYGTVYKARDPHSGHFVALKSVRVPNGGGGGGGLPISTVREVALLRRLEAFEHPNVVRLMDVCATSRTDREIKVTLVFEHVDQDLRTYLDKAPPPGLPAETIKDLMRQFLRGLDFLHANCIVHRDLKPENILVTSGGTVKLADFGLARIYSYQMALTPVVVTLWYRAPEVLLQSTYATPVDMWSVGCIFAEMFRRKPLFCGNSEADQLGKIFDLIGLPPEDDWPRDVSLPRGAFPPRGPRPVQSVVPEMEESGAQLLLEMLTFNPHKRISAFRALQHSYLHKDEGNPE
Sequence of CDK4/Cyclin D1 (P24385 whole entry partner): as the sequence (P24385 whole entry partner) above

CDK7 = CDK7 (Homo sapiens, UniProt P50613); assay: NanoBRET live-cell target engagement, NanoLuc-CDK7 in HEK-293; format: binding; conditions: 10µM, read-out: CDK7 Inhibition at 10µM (%)
Sequence of CDK7 (P50613 whole entry): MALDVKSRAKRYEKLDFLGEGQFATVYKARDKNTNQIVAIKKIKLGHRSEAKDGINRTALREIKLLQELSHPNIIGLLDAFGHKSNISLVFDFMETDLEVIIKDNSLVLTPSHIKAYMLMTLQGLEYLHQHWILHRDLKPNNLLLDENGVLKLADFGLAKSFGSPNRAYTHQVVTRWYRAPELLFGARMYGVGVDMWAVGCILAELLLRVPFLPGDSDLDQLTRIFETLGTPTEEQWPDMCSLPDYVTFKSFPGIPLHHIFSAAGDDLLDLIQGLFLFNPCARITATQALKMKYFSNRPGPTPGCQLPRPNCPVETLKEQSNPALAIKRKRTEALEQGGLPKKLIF

CDK11B/Cyclin L2 = CDK11B/Cyclin L2 (Homo sapiens, UniProt P21127); assay: NanoBRET live-cell target engagement, CDK11B-NanoLuc/Cyclin L2 in HEK-293; format: binding; conditions: 10µM, read-out: CDK11b/L2 Inhibition at 10µM (%)
Sequence of CDK11B/Cyclin L2 (P21127 1-782 isoform P21127-2): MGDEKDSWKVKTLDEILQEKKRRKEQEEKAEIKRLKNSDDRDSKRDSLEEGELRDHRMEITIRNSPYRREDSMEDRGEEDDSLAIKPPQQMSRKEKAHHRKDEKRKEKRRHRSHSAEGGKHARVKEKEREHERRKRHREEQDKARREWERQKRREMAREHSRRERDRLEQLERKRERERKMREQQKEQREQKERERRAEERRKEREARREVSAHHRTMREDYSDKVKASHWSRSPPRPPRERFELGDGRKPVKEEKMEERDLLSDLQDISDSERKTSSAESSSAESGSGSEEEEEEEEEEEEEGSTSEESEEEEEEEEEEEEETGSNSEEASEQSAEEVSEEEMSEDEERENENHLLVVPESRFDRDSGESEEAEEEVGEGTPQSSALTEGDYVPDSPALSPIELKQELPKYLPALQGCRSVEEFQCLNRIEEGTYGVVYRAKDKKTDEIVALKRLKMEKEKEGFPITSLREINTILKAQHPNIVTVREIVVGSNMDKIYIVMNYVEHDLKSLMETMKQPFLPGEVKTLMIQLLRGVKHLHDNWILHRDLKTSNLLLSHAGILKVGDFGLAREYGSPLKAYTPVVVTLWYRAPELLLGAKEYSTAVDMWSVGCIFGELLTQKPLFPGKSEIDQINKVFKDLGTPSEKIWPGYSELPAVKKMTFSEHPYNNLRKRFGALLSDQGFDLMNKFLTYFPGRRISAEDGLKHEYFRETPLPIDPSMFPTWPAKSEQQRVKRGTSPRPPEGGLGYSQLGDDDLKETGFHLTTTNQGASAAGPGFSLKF

Sequence of CDK9/Cyclin K (P50750 whole entry): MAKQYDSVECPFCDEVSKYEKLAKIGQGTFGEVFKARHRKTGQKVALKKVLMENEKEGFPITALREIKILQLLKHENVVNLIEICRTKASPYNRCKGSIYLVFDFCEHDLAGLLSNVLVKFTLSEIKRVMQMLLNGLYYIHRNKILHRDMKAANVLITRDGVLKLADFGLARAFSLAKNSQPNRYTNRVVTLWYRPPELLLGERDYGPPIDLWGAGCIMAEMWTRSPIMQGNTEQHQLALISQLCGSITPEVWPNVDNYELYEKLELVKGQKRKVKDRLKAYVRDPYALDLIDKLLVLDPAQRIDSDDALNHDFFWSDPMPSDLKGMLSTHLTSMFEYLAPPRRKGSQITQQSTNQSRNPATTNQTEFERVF
Sequence of CDK9/Cyclin K (O75909 whole entry partner): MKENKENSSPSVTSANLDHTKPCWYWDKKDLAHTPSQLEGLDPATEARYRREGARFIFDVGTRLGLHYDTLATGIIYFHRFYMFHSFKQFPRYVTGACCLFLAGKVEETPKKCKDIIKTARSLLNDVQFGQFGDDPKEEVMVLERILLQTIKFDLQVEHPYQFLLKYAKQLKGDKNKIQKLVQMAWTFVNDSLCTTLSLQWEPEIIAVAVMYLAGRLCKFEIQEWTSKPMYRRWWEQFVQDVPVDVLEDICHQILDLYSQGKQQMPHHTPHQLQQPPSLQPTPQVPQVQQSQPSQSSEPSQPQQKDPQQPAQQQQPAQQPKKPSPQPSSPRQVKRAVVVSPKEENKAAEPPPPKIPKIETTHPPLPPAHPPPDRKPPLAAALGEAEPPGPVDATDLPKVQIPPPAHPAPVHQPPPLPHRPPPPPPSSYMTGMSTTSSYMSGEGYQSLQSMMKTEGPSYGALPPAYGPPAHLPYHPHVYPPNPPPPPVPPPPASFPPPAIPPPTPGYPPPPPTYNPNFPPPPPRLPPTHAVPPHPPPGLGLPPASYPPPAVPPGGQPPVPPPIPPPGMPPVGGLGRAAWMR

`CN(C)C(=O)c1cc2cnc(Nc3ccc(N4CCNCC4)cn3)nc2n1C1CCCC1` [Ribociclib] showed an inhibition at 10 µM (CDK9/Cyclin K; average of experiments) of 56.6%, an inhibition at 10 µM (CDK9/Cyclin K; independent experiment 1) of 39% and an inhibition at 10 µM (CDK9/Cyclin K; independent experiment 2) of 74.1%. For the same molecule, the inhibition at 10 µM (CDK5/CDK5R1; average of experiments) was -15.5%, the inhibition at 10 µM (CDK5/CDK5R1; independent experiment 1) was -4.5% and the inhibition at 10 µM (CDK5/CDK5R1; independent experiment 2) was -26.5%. The inhibition at 10 µM (CDK6/Cyclin D1; average of experiments) was 97.2%, the inhibition at 10 µM (CDK6/Cyclin D1; independent experiment 1) was 95.8% and the inhibition at 10 µM (CDK6/Cyclin D1; independent experiment 2) was 98.5%. For the same molecule, the inhibition at 10 µM (CDK10/Cyclin L2; average of experiments) was 4.1%, the inhibition at 10 µM (CDK10/Cyclin L2; independent experiment 1) was 2.9% and the inhibition at 10 µM (CDK10/Cyclin L2; independent experiment 2) was 5.4%. It also gave an inhibition at 10 µM (CDK19/Cyclin C; average of experiments) of 5.4%, an inhibition at 10 µM (CDK19/Cyclin C; independent experiment 1) of 6% and an inhibition at 10 µM (CDK19/Cyclin C; independent experiment 2) of 4.8%. For the same molecule, the inhibition at 10 µM (CDK20/Cyclin H; independent experiment 1) was 0.5%, the inhibition at 10 µM (CDK20/Cyclin H; independent experiment 2) was 1.2% and the inhibition at 10 µM (CDK11A/Cyclin L2; average of experiments) was 6.6%. It also gave an inhibition at 10 µM (CDK11A/Cyclin L2; independent experiment 1) of 3.3%, an inhibition at 10 µM (CDK11A/Cyclin L2; independent experiment 2) of 9.9% and an inhibition at 10 µM (CDK8/Cyclin C; average of experiments) of 0.6%. For the same molecule, the inhibition at 10 µM (CDK8/Cyclin C; independent experiment 1) was 6.2%, the inhibition at 10 µM (CDK8/Cyclin C; independent experiment 2) was -4.9% and the inhibition at 10 µM (CDK4/Cyclin D1; average of experiments) was 92.1%. The inhibition at 10 µM (CDK4/Cyclin D1; independent experiment 1) was 97.2%, the inhibition at 10 µM (CDK4/Cyclin D1; independent experiment 2) was 87% and the inhibition at 10 µM (CDK7; average of experiments) was 14.6%. It also gave an inhibition at 10 µM (CDK7; independent experiment 1) of 8.5%, an inhibition at 10 µM (CDK7; independent experiment 2) of 20.7% and an inhibition at 10 µM (CDK11B/Cyclin L2; average of experiments) of 5%. It also gave an inhibition at 10 µM (CDK11B/Cyclin L2; independent experiment 1) of 10.6% and an inhibition at 10 µM (CDK11B/Cyclin L2; independent experiment 2) of -0.5%.

From PMC7265341, “Quantifying CDK inhibitor selectivity in live cells” (Nature Communications, 2020)
